In ChEMBL document CHEMBL3639068, “Small molecule inhibitors of Plasmodium falciparum dihydroorotate dehydrogenase” (2014):
pIC50: −log10 of the molar value.

Tests used:
[1] = biological target: Dihydroorotate dehydrogenase (quinone), mitochondrial (Homo sapiens, UniProt Q02127); experiment: (§1) Enzymatic Assays: Type 2 DHODH activity was monitored with either the direct assay measuring the formation of orotate or via a chromogen reduction assay using DCIP. Although the extinction coefficient and absorption wavelength are preferable for the chromogen reduction assay, the […] electron acceptor DCIP can be utilized by DHODH as the final electron acceptor in lieu of CoQn when the endogenous substrate is at a low concentration. As such, the direct assay was used to measure the binding affinity of pfDHODH to CoQD and L-DHO. The enzymatic reaction was performed by varying the L-DHO concentration (1-400 μM) or CoQD concentration (1-200 μM) while keeping the other substrate constant and in excess. Inhibition of DHODH by small molecules was evaluated using the chromogen based assay with a final substrate concentration of 200 μM L-DHO, 18 μM CoQD, and 100 μM DCIP, unless otherwise noted.
Chain of Dihydroorotate dehydrogenase (quinone), mitochondrial (Q02127 whole entry): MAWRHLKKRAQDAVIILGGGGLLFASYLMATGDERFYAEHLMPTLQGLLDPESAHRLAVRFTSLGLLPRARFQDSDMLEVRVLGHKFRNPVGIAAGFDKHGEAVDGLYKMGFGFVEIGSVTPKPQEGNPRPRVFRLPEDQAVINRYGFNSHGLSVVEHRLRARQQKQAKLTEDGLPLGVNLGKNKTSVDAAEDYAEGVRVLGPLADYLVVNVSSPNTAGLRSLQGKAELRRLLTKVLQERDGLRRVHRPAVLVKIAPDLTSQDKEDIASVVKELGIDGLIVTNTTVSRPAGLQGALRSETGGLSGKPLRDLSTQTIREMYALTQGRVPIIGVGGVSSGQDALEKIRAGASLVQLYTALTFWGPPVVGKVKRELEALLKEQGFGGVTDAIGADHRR

[2] = biological target: T1, Dihydroorotate dehydrogenase, mitochondrial, putative (Plasmodium vivax (strain Salvador I), UniProt A5K1N1); experiment: as §1
T1 sequence (A5K1N1 whole entry): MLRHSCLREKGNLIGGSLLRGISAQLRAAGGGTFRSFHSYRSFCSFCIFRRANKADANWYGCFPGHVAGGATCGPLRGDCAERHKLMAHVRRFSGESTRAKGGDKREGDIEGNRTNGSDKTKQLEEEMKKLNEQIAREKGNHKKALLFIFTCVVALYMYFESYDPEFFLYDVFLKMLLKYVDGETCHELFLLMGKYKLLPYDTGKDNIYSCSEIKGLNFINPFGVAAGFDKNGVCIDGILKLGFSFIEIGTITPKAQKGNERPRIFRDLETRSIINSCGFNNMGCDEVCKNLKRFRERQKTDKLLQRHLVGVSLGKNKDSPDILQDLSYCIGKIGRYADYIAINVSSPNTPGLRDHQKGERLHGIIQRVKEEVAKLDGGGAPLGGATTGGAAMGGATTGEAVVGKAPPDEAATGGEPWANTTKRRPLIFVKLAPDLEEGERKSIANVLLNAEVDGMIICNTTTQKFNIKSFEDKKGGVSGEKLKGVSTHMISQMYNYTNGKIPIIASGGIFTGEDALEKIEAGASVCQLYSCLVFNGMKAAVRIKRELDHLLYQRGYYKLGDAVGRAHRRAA

[3] = biological target: T2, Dihydroorotate dehydrogenase (fumarate) (Saccharomyces cerevisiae S288c, UniProt P28272); experiment: as §1
T2 sequence (P28272 whole entry): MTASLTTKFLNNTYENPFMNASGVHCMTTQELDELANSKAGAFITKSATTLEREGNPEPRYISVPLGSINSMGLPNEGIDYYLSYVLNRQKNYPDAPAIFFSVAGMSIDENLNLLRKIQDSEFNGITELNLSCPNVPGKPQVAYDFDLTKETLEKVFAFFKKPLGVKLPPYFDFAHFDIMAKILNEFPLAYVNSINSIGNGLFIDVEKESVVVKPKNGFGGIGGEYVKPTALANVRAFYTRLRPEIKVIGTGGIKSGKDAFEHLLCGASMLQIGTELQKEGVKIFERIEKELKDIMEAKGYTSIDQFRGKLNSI

Row | Structure (SMILES) | pIC50 [1] | pIC50 [2] | pIC50 [3]
1 | CCCNC(=O)c1ccc(N2CCN(C)CC2)s1 | < 4.52 | – | –
2 | Fc1cc(I)ccc1Nc1ccnc2cc(Cl)ccc12 | < 4.52 | < 5.00 | < 5.00
3 | Cc1ccccc1/C=C/c1cc(O)c2ccccc2n1 | – | 5.25 | –
4 | CCCCCC1CCCc2c1nc1ccccc1c2O (configuration not stated) | – | – | < 5.00
5 | CCOC(=O)c1[nH]c(C)c(Cc2ccc(OCC)cc2)c1C | – | – | < 5.00
